Values quoted from earlier work in patent US12678540B2, “Chimeric peptide-modified SIS membrane, preparation method therefor and application thereof” (Beijing Biosis Healing Biological Technology Co., Ltd., priority 2021, dated 2026).

Test system: fibroblasts, epithelial cells and endothelial cells

Substance: Hst1: member of the histatins (HSTs); sequence SHREFPFYGDYGS contains minimal elements to promote cell migration
- migration or adhesion of fibroblasts, epithelial cells and endothelial cells: promote the migration or adhesion
